Experimental data: patent publication US11780839B2, “Compounds for treating Huntington's disease” (PTC THERAPEUTICS, INC., priority 2018, dated 2023)

Tested on: Endogenous Huntingtin Protein
Assay: Endogenous Huntingtin Protein Assay (ELISA-based Meso Scale Discovery electrochemiluminescence)
Assay type: cell-based
Settings: MSD electrochemiluminescence, Table 1
Protocol: Compounds of Formula (I) or Formula (II) were tested using the Meso Scale Discovery (MSD) Assay provided in International Application No. PCT/US2016/066042, filed on Dec. 11, 2016 and claiming priority to U.S. Provisional Application 62/265,652 filed on Dec. 10, 2015, the entire contents of which are incorporated herein by reference.
The Endogenous Huntingtin Protein assay used in Example 1 was developed using the ELISA-based MSD electrochemiluminescence assay platform.
Endogenous Huntingtin Protein Assay
Meso Scale Discovery (MSD) 96-well or 384-well plates were coated overnight at 4° C. with MW1 (expanded polyglutamine) or MAB2166 monoclonal antibody (for capture) at a concentration of 1 μg/mL in PBS (30 μL per well). Plates were then washed three times with 300 μL wash buffer (0.05% Tween-20 in PBS) and blocked (100 μL blocking buffer; 5% BSA in PBS) for 4-5 hours at room temperature with rotational shaking and then washed three times with wash buffer.
Samples (25 μL) were transferred to the antibody-coated MSD plate and incubated overnight at 4° C. After removal of the lysates, the plate was washed three times with wash buffer, and 25 μL of #5656S (Cell signaling; rabbit monoclonal) secondary antibody (diluted to 0.25 μg/mL in 0.05% Tween-20 in blocking buffer) was added to each well and incubated with shaking for 1 Hour at room temperature. Following incubation with the secondary antibody, the wells were rinsed with wash buffer after which 25 μL of goat anti-rabbit SULFO TAG secondary detection antibody (required aspect of the MSD system) (diluted to 0.25 μg/mL in 0.05% Tween-20 in blocking buffer) was added to each well and incubated with shaking for 1 hour at room temperature. After rinsing three times with wash buffer, 150 μL of read buffer T with surfactant (MSD) were added to each empty well, and the plate was imaged on a SI 6000 imager (MSD) according to manufacturers' instructions provided for 96- or 384-well plates.

Question: For `CN(c1ncc(-c2ccc(-c3c[nH]nn3)cc2O)nn1)C1CC(C)(C)NC(C)(C)C1` [Cpd 4, 2-{3-[methyl(2,2,6,6-tetramethylpiperidin-4-yl)amino]-1,2,4-triazin-6-yl}-5-(1H-1,2,3-triazol-4-yl)phenol], which IC50 is on record?
Answer: ≤ 100 nM

Question: `NC1CN(c2ncc(-c3ccc(-c4cn[nH]c4)cc3O)nn2)CC12COC2` (stereo not shown) [Cpd 334, 2-[3-(8-amino-2-oxa-6-azaspiro[3.4]octan-6-yl)-1,2,4-triazin-6-yl]-5-(1H-pyrazol-4-yl)phenol] was tested. Which IC50 did it give?
Answer: 1000 to 3000 nM

Question: How did the IC50 turn out when `CN(c1ncc(-c2ccc(-n3nccn3)cc2O)nn1)[C@H]1C[C@]2(C)CC[C@](C)(C1)N2` [Cpd 417] was run?
Answer: ≤ 100 nM

Question: For `CN1CCC2(CC1)CN(c1ncc(-c3ccc(-c4ccc5c(cnn5C)c4)cc3O)nn1)C2` [Cpd 223], which IC50 is on record?
Answer: 100 to 500 nM

Question: For `CC1(C)CC(Nc2ncc(-c3ccc(-n4cnc(F)c4)cc3O)nn2)CC(C)(C)N1` [Cpd 275, 5-(4-fluoro-1H-imidazol-1-yl)-2-{3-[(2,2,6,6-tetramethylpiperidin-4-yl)amino]-1,2,4-triazin-6-yl}phenol], which IC50 is on record?
Answer: ≤ 100 nM

Question: How did the IC50 turn out when `Cc1ncc(-c2ccc(-c3cnc(N4CCC(NC(C)C)C4)nn3)c(O)c2)o1` (stereo not drawn) [Cpd 289, 5-(2-methyl-1,3-oxazol-5-yl)-2-(3-{3-[(propan-2-yl)amino]pyrrolidin-l-yl}-1,2,4-triazin-6-yl)phenol] was run?
Answer: ≤ 100 nM

Question: `CN1CCC2(CC1)CN(c1ncc(-c3ccc(-c4nnn(C)n4)cc3O)nn1)C2` [Cpd 251, 2-[3-(7-methyl-2,7-diazaspiro[3.5]nonan-2-yl)-1,2,4-triazin-6-yl]-5-(2-methyl-2H-tetrazol-5-yl)phenol] was tested. Which IC50 did it give?
Answer: 100 to 500 nM

Question: For `CN(c1ncc(-c2ccc(-c3ncnc(O)n3)cc2O)nn1)C1CC(C)(C)NC(C)(C)C1` [Cpd 33, 4-(3-hydroxy-4-{3-[methyl(2,2,6,6-tetramethylpiperidin-4-yl)amino]-1,2,4-triazin-6-yl}phenyl)-1,3,5-triazin-2-ol], which IC50 is on record?
Answer: 1000 to 3000 nM

Question: How did the IC50 turn out when `CN(c1ncc(-c2ccc(-c3cc(F)c4[nH]cnc4c3)cc2O)nn1)C1CC(C)(C)NC(C)(C)C1` [Cpd 280, 5-(7-fluoro-1H-benzimidazol-5-yl)-2-{3-[methyl(2,2,6,6-tetramethylpiperidin-4-yl)amino]-1,2,4-triazin-6-yl}phenol] was run?
Answer: ≤ 100 nM

Question: How did the IC50 turn out when `CN1CCC2(CC1)CN(c1ncc(-c3ccc(-c4ccn(C)c(=O)c4)cc3O)nn1)C2` [Cpd 241, 4-{3-hydroxy-4-[3-(7-methyl-2,7-diazaspiro[3.5]nonan-2-yl)-1,2,4-triazin-6-yl]phenyl}-1-methylpyridin-2(1H)-one] was run?
Answer: ≤ 100 nM

Question: For `Cn1ccc(-c2ccc(-c3cnc(OC4CC(C)(C)NC(C)(C)C4)nn3)c(O)c2)n1` [Cpd 108, 5-(1-methyl-1H-pyrazol-3-yl)-2-{3-[(2,2,6,6-tetramethylpiperidin-4-yl)oxy]-1,2,4-triazin-6-yl}phenol], which IC50 is on record?
Answer: > 500 nM

Question: How did the IC50 turn out when `CNC1CCN(c2ncc(-c3ccc(-c4cc(OC)ncn4)cc3O)nn2)C1` (stereo not shown) [Cpd 268, 5-(6-methoxypyrimidin-4-yl)-2-{3-[(methylamino)pyrrolidin-1-yl]-1,2,4-triazin-6-yl}phenol] was run?
Answer: ≤ 100 nM

Question: With `CN(c1ncc(-c2ccc(-c3ccn(C)c(=O)c3)cc2O)nn1)C1CC(C)(C)NC(C)(C)C1` [Cpd 56] as the molecule, how does the IC50 read?
Answer: ≤ 100 nM

Question: With `CC(C)NC1CCN(c2ncc(-c3ccc(-c4ncns4)cc3O)nn2)C1` (stereo not shown) [Cpd 237, 2-(3-{3-[(propan-2-yl)amino]pyrrolidin-1-yl}-1,2,4-triazin-6-yl)-5-(1,2,4-thiadiazol-5-yl)phenol] as the molecule, how does the IC50 read?
Answer: 100 to 500 nM

Question: How did the IC50 turn out when `[2H]C([2H])([2H])n1cc(-c2ccc(-c3cnc(N(C)C4CC(C)(C)NC(C)(C)C4)nn3)c(O)c2)cn1` [Cpd 14, 5-[1-(^2H3)methyl-1H-pyrazol-4-yl]-2-{3-[methyl(2,2,6,6-tetramethylpiperidin-4-yl)amino]-1,2,4-triazin-6-yl}phenol] was run?
Answer: ≤ 100 nM

Question: With `Cn1ncc(-c2ccc(-c3cnc(N[C@H]4CC(C)(C)NC(C)(C)[C@H]4F)nn3)c(O)c2)n1` [Cpd 287, 2-(3-{[(3S,4S)-3-fluoro-2,2,6,6-tetramethylpiperidin-4-yl]amino}-1,2,4-triazin-6-yl)-5-(2-methyl-2H-1,2,3-triazol-4-yl)phenol] as the molecule, how does the IC50 read?
Answer: ≤ 100 nM

Question: `Oc1cc(-c2cn[nH]c2)ccc1-c1cnc(N2CC3(CCNCC3)C2)nn1` [Cpd 96, 2-[3-(2,7-diazaspiro[3.5]nonan-2-yl)-1,2,4-triazin-6-yl]-5-(1H-pyrazol-4-yl)phenol] was tested. Which IC50 did it give?
Answer: ≤ 100 nM

Question: With `CN(c1ncc(-c2ccc(-c3ccc4nnn(C)c4n3)cc2O)nn1)C1CC(C)(C)NC(C)(C)C1` [Cpd 173] as the molecule, how does the IC50 read?
Answer: ≤ 100 nM

Question: For `COc1cc(-c2ccc(-c3cnc(N(C)C4CC(C)(C)NC(C)(C)C4)nn3)c(O)c2)ccn1` [Cpd 3, 5-(2-methoxypyridin-4-yl)-2-{3-[methyl(2,2,6,6-tetramethylpiperidin-4-yl)amino]-1,2,4-triazin-6-yl}phenol], which IC50 is on record?
Answer: ≤ 100 nM

Question: Which IC50 does the source give for `Oc1cc(-c2cn[nH]c2)ccc1-c1cnc(N2CCC(CNC3CCCOC3)C2)nn1` (stereo not shown) [Cpd 404, 2-[3-(3-{[(oxan-3-yl)amino]methyl}pyrrolidin-1-yl)-1,2,4-triazin-6-yl]-5-(1H-pyrazol-4-yl)phenol] here?
Answer: ≤ 100 nM

Question: Which IC50 does the source give for `CC1(C)C[C@H](Nc2ncc(-c3ccc(-c4cn[nH]c4)cc3O)nn2)[C@H](F)C(C)(C)N1` [Cpd 322, 2-(3-{[(3S,4S)-3-fluoro-2,2,6,6-tetramethylpiperidin-4-yl]amino}-1,2,4-triazin-6-yl)-5-(1H-pyrazol-4-yl)phenol] here?
Answer: ≤ 100 nM

Question: Which IC50 does the source give for `CN(c1ncc(-c2ccc(-c3ccc4ncoc4c3)cc2O)nn1)C1CC(C)(C)NC(C)(C)C1` [Cpd 145, 5-(1,3-benzoxazol-6-yl)-2-{3-[methyl(2,2,6,6-tetramethylpiperidin-4-yl)amino]-1,2,4-triazin-6-yl}phenol] here?
Answer: ≤ 100 nM

Question: With `CC(C)NC1CCN(c2ncc(-c3ccc(-c4cnn(C)c4)cc3O)nn2)C1` (stereo not shown) [Cpd 203] as the molecule, how does the IC50 read?
Answer: ≤ 100 nM

Question: How did the IC50 turn out when `CN(c1ncc(-c2ccc(-c3ccc4c(c3)ncn4C)cc2O)nn1)C1CC(C)(C)NC(C)(C)C1` [Cpd 285, 5-(1-methyl-1H-benzimidazol-5-yl)-2-{3-[methyl(2,2,6,6-tetramethylpiperidin-4-yl)amino]-1,2,4-triazin-6-yl}phenol] was run?
Answer: ≤ 100 nM

Question: With `CN(c1ncc(-c2ccc(-c3cn[nH]c3)cc2O)nn1)C1C[C@H]2CCC[C@@H](C1)N2C` (stereo partly drawn) [Cpd 87, 2-(3-{methyl[(1R,3s,5S)-9-methyl-9-azabicyclo[3.3.1]nonan-3-yl]amino}-1,2,4-triazin-6-yl)-5-(1H-pyrazol-4-yl)phenol] as the molecule, how does the IC50 read?
Answer: ≤ 100 nM

Question: For `CN(c1ncc(-c2cc(F)c(-c3ccn[nH]3)cc2O)nn1)C1CC(C)(C)NC(C)(C)C1` [Cpd 125, 4-fluoro-2-{3-[methyl(2,2,6,6-tetramethylpiperidin-4-yl)amino]-1,2,4-triazin-6-yl}-5-(1H-pyrazol-5-yl)phenol], which IC50 is on record?
Answer: ≤ 100 nM

Question: Which IC50 does the source give for `CN(c1ncc(-c2ccc(-n3cc(CO)cn3)cc2O)nn1)C1CC(C)(C)NC(C)(C)C1` [Cpd 161, 5-[4-(hydroxymethyl)-1H-pyrazol-1-yl]-2-{3-[methyl(2,2,6,6-tetramethylpiperidin-4-yl)amino]-1,2,4-triazin-6-yl}phenol] here?
Answer: ≤ 100 nM

Question: Which IC50 does the source give for `CN(c1ncc(-c2ccc(-c3cccnn3)cc2O)nn1)C1CC(C)(C)NC(C)(C)C1` [Cpd 84, 2-{3-[methyl(2,2,6,6-tetramethylpiperidin-4-yl)amino]-1,2,4-triazin-6-yl}-5-(pyridazin-3-yl)phenol] here?
Answer: ≤ 100 nM

Question: How did the IC50 turn out when `CC(C)NC(C)C1CCN(c2ncc(-c3ccc(-c4cn[nH]c4)cc3O)nn2)C1` (stereo not shown) [Cpd 414, 2-[3-(3-{1-[(propan-2-yl)amino]ethyl}pyrrolidin-1-yl)-1,2,4-triazin-6-yl]-5-(1H-pyrazol-4-yl)phenol] was run?
Answer: ≤ 100 nM

Question: How did the IC50 turn out when `CC12CC3CC(C)(C1)CC(NC1CCN(c4ncc(-c5ccc(-c6cn[nH]c6)cc5O)nn4)C1)(C3)C2` (stereo not shown) [Cpd 160, 2-(3-{3-[(3,5-dimethyladamantan-1-yl)amino]pyrrolidin-1-yl}-1,2,4-triazin-6-yl)-5-(1H-pyrazol-4-yl)phenol] was run?
Answer: 1000 to 3000 nM

Question: How did the IC50 turn out when `CC(C)(C)NC1CCN(c2ncc(-c3ccc(-n4nccn4)cc3O)nn2)C1` (stereo not drawn) [Cpd 204, 2-{3-[3-(tert-butylamino)pyrrolidin-l-yl]-1,2,4-triazin-6-yl}-5-(2H-1,2,3-triazol-2-yl)phenol] was run?
Answer: ≤ 100 nM

Question: Which IC50 does the source give for `CN(c1ncc(-c2ccc(-c3ncc(F)cn3)cc2O)nn1)C1CC(C)(C)NC(C)(C)C1` [Cpd 112, 5-(5-fluoropyrimidin-2-yl)-2-{3-[methyl(2,2,6,6-tetramethylpiperidin-4-yl)amino]-1,2,4-triazin-6-yl}phenol] here?
Answer: 100 to 500 nM

Question: For `CN(c1ncc(-c2ccc(-c3cnccn3)cc2O)nn1)C1CC(C)(C)NC(C)(C)C1` [Cpd 83, 2-{3-[methyl(2,2,6,6-tetramethylpiperidin-4-yl)amino]-1,2,4-triazin-6-yl}-5-(pyrazin-2-yl)phenol], which IC50 is on record?
Answer: ≤ 100 nM

Question: Which IC50 does the source give for `CN(c1ncc(-c2ccc(-n3cc(F)cn3)cc2O)nn1)C1CC(C)(C)NC(C)(C)C1` [Cpd 93, 5-(4-fluoro-1H-pyrazol-1-yl)-2-{3-[methyl(2,2,6,6-tetramethylpiperidin-4-yl)amino]-1,2,4-triazin-6-yl}phenol] here?
Answer: ≤ 100 nM
